Three molecules from article PMC4013053, “Identification of Selective Small Molecule Inhibitors of the Nucleotide-Binding Oligomerization Domain 1 (NOD1) Signaling Pathway” (PLoS ONE, 2014) can be followed below.

Assay [1] has as its target T1, NOD1 (Mus musculus, UniProt Q8BHB0).
T1 construct: following intraperitoneal injection of FK156 in a model of acute peritonitis; from tissue; host or cells: whole mouse (in vivo)
T1 sequence (Q8BHB0 1-953): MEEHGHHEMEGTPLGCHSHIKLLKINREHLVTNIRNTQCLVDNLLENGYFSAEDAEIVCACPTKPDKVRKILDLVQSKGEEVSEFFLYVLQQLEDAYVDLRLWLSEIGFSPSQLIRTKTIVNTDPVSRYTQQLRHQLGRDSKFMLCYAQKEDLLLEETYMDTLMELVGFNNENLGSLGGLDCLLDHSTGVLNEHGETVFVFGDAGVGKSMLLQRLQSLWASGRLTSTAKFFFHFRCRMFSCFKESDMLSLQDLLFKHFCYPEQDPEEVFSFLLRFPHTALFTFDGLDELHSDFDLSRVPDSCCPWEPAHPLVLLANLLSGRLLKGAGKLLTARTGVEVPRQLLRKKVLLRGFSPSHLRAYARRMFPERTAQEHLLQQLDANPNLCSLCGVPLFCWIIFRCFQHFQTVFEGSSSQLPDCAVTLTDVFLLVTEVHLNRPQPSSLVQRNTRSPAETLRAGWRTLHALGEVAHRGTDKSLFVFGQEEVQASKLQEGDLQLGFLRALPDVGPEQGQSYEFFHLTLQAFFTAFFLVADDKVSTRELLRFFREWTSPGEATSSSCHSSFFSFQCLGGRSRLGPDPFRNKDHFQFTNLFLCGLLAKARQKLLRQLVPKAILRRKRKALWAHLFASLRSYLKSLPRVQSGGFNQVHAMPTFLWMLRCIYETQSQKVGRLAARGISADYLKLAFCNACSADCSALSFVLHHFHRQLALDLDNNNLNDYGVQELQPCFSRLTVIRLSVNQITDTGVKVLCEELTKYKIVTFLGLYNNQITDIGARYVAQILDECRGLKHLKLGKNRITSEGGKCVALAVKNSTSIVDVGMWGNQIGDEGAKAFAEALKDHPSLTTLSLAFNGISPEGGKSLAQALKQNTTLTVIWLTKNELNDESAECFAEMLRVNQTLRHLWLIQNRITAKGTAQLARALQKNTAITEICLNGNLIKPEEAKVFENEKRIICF
As to the kind of experiment: FK156 acute peritonitis model in mice, serum KC and IP-10. It counts as in vivo. The conditions noted are these: oral administration, intraperitoneal FK156, data not shown. An excerpt:
We speculate that the known differences in ligand recognition between human and mouse NOD1 mapped to residues within the leucine-rich repeat domains could underlie the observed differential activity of the compounds on human versus mouse NOD1 signaling.

Assay [2] concerns panel of 300 human kinases. The experiment in a line: Kinase activity panel (Reaction Biology Corp). The assay is classed as biochemical. The conditions noted are these: 1 µM compound, 10 µM ATP, 300 kinases. Here is the method:
(§1) The compounds were tested in duplicate at 1 µM with a 20-minute pre-incubation with enzyme followed by addition of 10 µM ATP.

Assay [3] addresses T2, CAMK1 (Homo sapiens, UniProt Q14012).
T2 construct: purchased Reaction Biology Corp
The experiment in a line: Kinase activity panel: CAMK1. The assay is classed as biochemical. The conditions noted are these: 1 µM compound, 10 µM ATP. As for the experimental part:
as §1

Regarding `Cc1nc2ccccc2c(=O)n1-c1ccc(Cl)c(NS(=O)(=O)c2ccccc2F)c1` [Compound 22], in assay [1], the “effect on serum KC and IP-10 (CXCL10)” value is “failed to reduce serum KC and IP-10 (CXCL10)”.
In the case of `CCc1ccc(S(=O)(=O)Nc2cc(-n3c(C)nc4ccccc4c3=O)ccc2F)s1` [GSK223], the “inhibition of any kinase in panel” value in assay [2] is given as no more than 50%.
As for `Cc1nc2ccc(NC(=O)c3cccc(NS(=O)(=O)c4ccc(F)cc4)c3)cc2s1` [GSK966], the “decrease of CAMK1 activity” value in assay [3] came out at 55%.
